This is an account of results in patent US20260007675A1, “TARGETING CHROMATIN REGULATORS INHIBITS LEUKEMOGENIC GENE EXPRESSION IN NPM1 MUTANT LEUKEMIA” (MEMORIAL SLOAN KETTERING CANCER CENTER, priority 2016, published 2026).

The target of one assay is DOT1L (Homo sapiens (Human), UniProt Q8TEK3). To be noted: cited from earlier work.
For assay [1], the system named is Npm1CA/+RosaSB/+ leukemia cells. The experiment in a line: Transplantation of ex vivo pretreated Npm1CA/+RosaSB/+ leukemia cells (leukemia initiating potential). Particulars: for survival compared to vehicle control: pretreated Npm1CA/+RosaSB/+ cells, single compound. It is filed as in vivo, mice. As to the method:
As HOX gene expression is associated with self-renewal properties, the inventors next determined whether pharmacological DOT1L inhibition inhibits NPM1^mut leukemia initiation in mice. Murine Npm1^CA/+Rosa^SB/+ leukemia cells were treated ex vivo with EPZ4777 or drug vehicle for 10 days and equal numbers of viable cells were transplanted into sublethally irradiated recipient animals.
Npm1^CA/+Flt3^ITD/+ and Npm1^CA/+Rosa^SB/+ cells were harvested from moribund leukemic animals and transplanted into primary and secondary recipient mice as previously described. […] All transplantation experiments with ex vivo treated cells were performed as secondary transplantations.

For another assay, the system named is HL-60 cells. Kind of assay: Cell viability / proliferation assay in HL-60 cells. The assay is classed as cell-based, human. As to the method: (§1) Proliferation assays were performed as previously described. Viable cell counts were determined by flow cytometry using Sytox Blue (Invitrogen) or DAPI viability stains.
In assay [2] the test system is menin, H3K4me3 and H3K79me2 at HOX and MEIS1 loci in OCI-AML3 cells. Kind of assay: Chromatin immunoprecipitation-qPCR and immunoblotting of chromatin marks in OCI-AML3 cells. It is filed as cell-based, human. Particulars: OCI-AML3, EPZ4777 10 μM.
The subject of assay [3] is Hoxa9-Meis1 transformed cells. Kind of assay: Colony forming assay in Hoxa9-Meis1 transformed cells. Particulars: Hoxa9-Meis1 in vitro transformed cells, EPZ4777 10 μM. It is filed as cell-based, murine.
Assay [4] concerns Npm1CA/+RosaSB/+ and Npm1CA/+Flt3ITD/+ leukemia cells. The experiment in a line: Colony forming and liquid culture proliferation assays in murine NPM1mut leukemia cells. To be noted: EPZ4777 10 μM. It is filed as cell-based. On the procedure: For drug testing experiments, leukemic blasts were harvested from moribund primarily transplanted mice and cultured in vitro.
as §1
RNA and DNA purification, cDNA synthesis, quantitative real-time (qRT-) PCR, western blotting, flow cytometry, colony forming assays, viral transduction and shRNA based knock down experiments were performed using standard procedures. Primer sequences, western antibodies, and plasmids are also listed in the supplement.

The subject of assay [5] is HOX, MEIS1 and FLT3 expression in OCI-AML3 cells. Kind of assay: Gene expression (quantitative PCR / RNA sequencing) in OCI-AML3 cells. The assay is classed as cell-based, human.
The test system of assay [6] is OCI-AML3 cells. The experiment in a line: Cell viability / proliferation assay in OCI-AML3 cells. The assay is classed as cell-based, human. On the procedure:
as §1

Assay [7] relates to OCI-AML3 cells. Kind of assay: Cell differentiation by CD11b flow cytometry in OCI-AML3 cells. It is filed as cell-based, human. Particulars: OCI-AML3, MI-2-2 12 μM, day seven of treatment.
Assay [8] relates to OCI-AML3 cells. Kind of assay: OCI-AML3 xenotransplantation model in NSG mice. The assay is classed as in vivo. Particulars: MI-503 50 mg/kg bid IP, versus vehicle.
Where [9] appears, read: OCI-AML3, 4 days of MI-2-2 treatment (12 μM).

Sequence of DOT1L (Q8TEK3 whole entry): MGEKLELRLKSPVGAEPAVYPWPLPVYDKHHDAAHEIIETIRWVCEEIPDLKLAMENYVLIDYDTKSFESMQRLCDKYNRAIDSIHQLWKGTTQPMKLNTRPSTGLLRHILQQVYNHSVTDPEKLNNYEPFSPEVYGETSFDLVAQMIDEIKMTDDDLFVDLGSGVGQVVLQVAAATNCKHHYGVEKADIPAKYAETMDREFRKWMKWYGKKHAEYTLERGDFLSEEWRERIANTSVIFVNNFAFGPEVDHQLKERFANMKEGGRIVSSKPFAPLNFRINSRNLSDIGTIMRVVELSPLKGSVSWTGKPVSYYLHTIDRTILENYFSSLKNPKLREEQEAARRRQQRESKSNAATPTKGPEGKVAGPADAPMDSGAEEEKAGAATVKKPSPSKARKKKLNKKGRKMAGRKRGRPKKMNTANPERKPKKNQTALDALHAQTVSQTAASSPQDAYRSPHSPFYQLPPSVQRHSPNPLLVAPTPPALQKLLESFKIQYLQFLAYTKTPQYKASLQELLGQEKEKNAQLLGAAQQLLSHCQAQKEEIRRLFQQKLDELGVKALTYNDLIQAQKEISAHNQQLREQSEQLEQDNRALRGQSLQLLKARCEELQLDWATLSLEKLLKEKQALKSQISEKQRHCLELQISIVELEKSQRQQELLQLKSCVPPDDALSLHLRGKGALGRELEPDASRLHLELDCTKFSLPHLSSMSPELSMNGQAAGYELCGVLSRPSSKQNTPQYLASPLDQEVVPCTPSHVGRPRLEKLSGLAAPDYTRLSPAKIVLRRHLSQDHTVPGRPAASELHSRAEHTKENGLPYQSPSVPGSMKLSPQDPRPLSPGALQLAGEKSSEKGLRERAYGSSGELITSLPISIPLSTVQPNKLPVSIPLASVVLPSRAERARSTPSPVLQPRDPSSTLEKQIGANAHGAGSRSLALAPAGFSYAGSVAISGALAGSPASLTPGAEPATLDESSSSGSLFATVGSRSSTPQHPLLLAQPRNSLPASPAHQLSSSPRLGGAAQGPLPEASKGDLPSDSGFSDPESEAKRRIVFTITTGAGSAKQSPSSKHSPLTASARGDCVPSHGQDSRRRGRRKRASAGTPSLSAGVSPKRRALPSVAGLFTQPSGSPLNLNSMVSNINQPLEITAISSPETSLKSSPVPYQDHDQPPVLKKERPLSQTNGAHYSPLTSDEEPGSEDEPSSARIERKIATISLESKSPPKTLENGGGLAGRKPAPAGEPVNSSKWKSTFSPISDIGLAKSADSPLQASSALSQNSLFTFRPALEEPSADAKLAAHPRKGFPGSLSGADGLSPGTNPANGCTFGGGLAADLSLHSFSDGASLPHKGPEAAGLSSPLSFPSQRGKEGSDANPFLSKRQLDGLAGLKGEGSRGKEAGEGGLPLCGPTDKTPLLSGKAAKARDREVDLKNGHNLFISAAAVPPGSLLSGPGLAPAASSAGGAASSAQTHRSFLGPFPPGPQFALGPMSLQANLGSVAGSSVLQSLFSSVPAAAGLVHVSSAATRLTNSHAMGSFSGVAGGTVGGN

With `CC(C)N(CCCNC(=O)Nc1ccc(C(C)(C)C)cc1)C[C@H]1O[C@@H](n2ccc3c(N)ncnc32)[C@H](O)[C@@H]1O` [EPZ4777], at DOT1L, the “specificity for DOT1L as compared to other methyl transferases” value was “highly specific for DOT1L”. Also, the “WBC counts at time of disease onset within the control group” value in assay [1] (cells treated ex vivo with EPZ4777 for 10 days) is “significantly lower WBC counts”. For the same molecule, in [1] (cells treated ex vivo with EPZ4777 for 10 days, versus vehicle), the “survival of recipient animals” value is given as “significant survival advantage”. The “survival compared to vehicle control” value in assay [1] is on record as “significantly prolonged survival”. The cell proliferation result with HL-60 cells (HL-60, EPZ4777 10 μM) was “unaffected”; in the assay with OCI-AML3 cells [6] (human NPM1mut leukemia cells (OCI-AML3), EPZ4777 10 μM) it was “profound reduction”. Moreover, the “H3K79me2 marks (immunoblotting and ChIP-PCR)” value in [2] is “global and HOXA and HOXB loci specific reduction”. For the same molecule, the colony forming potential entry in assay [3] is “unaffected”. In assay [4], the “cell proliferation and colony forming potential” value is given as “profound reduction”. Also, the FLT3 expression entry in [5] (EPZ4777 10 μM, 7 days, all NPM1mut models) was “dramatic suppression”. In assay [5] (EPZ4777 10 μM, 7 days, human and murine models), the HOX gene expression result is on record as “significant repression”.
`CC1(C)CN=C(N2CCN(c3ncnc4sc(CC(F)(F)F)cc34)CC2)S1` [MI-2-2]: the cell growth inhibition entry with HL-60 cells (HL-60 (no NPM1mut or MLL-rearrangement), MI-2-2 dose response) is listed as “only a mild cell growth inhibitory effect at higher doses”. Also, the CD11b expression in the assay on OCI-AML3 cells [7] came out at 72%. Moreover, in assay [5] (setting [9]), the FLT3 transcript levels entry is “substantially and highly significantly suppressed”; the “HOXA, HOXB cluster and MEIS1 gene expression” value is on record as “significant down regulation”. For the same molecule, the cell proliferation entry in the assay with OCI-AML3 cells [6] (OCI-AML3, dose response, 11 days of MI-2-2 treatment) was “profound dose-dependent reduction in cell proliferation”.
For `Cc1c(CN2CCC(Nc3ncnc4sc(CC(F)(F)F)cc34)CC2)ccc2c1cc(C#N)n2Cc1cn[nH]c1` [MI-503], the “survival compared to vehicle control” value in [1] is given as “significantly prolonged survival”. Further, in the assay on OCI-AML3 cells [8] (7 and 12 days), the “leukemia burden (percentage of bone marrow cells expressing human CD45)” value is “significantly reduced”. The “HOXB4, MEIS1 and FLT3 expression in sorted human CD45 positive cells” value with OCI-AML3 cells [8] is given as “dramatic decrease of expression levels”. Besides, the “potency compared with MI-2-2 (dose response curves)” value in the assay with OCI-AML3 cells [6] (human and murine NPM1mut leukemia cells) is listed as “higher potency”.
